Test systems include ML-2; MOLM-13; CMS; U937; CHRF288-11; CMK; M07e; MV4-11.
Common to all, as to parameters: species or system AML cell lines (8); Primary HTS, single concentration about 10 uM, Cell Titer Glo viability; log10 luminescence, per cent inhibition relative to cycloheximide control
What all share (conditions): 72 h, relative to cycloheximide control, log10 luminescence, inhibitor

Like-named read-outs stand apart in the source and are kept apart here.

As for `CO[C@H]1/C=C/O[C@@]2(C)Oc3c(C)c(O)c4c(O)c(c(/C=N/N5CCN(C)CC5)c(O)c4c3C2=O)NC(=O)/C(C)=C\C=C\[C@H](C)[C@H](O)[C@@H](C)[C@@H](O)[C@@H](C)[C@H](OC(C)=O)[C@@H]1C` [SJ000000850-5, RIFAMPIN | RIFAMPICIN], the ML-2 %inh in the assay on ML-2 (ML-2 %inh, 10 µM) is recorded as 5.116%. Further, the MOLM-13 %inh in the assay with MOLM-13 (MOLM-13 %inh, 10 µM) is -1.813%. Besides, the CMS %inh with CMS (CMS %inh, 10 µM) stood at 9.631%. Also, the U937 %inh in the assay with U937 (U937 %inh, 10 µM) turned out to be 3.295%. In addition, the CHRF288-11 %inh in the assay on CHRF288-11 (CHRF288-11 %inh, 10 µM) is listed as 0.3238%. In addition, the CMK %inh in the assay on CMK (CMK %inh, 10 µM) is recorded as -4.011%. The M07e %inh with M07e (M07e %inh, 10 µM) was 0.4502%. Further, the MV4-11 %inh in the assay on MV4-11 (MV4-11 %inh, 10 µM) came out at 3.37%.
With `COC(=O)Nc1nc2cc(Oc3cccc(NC(=O)Nc4cc(C(F)(F)F)ccc4F)c3)ccc2[nH]1` [SJ000573299-1, T261/2/3], in the assay with ML-2, the ML-2 %inh was -3.985%. Further, in the assay with MOLM-13, the MOLM-13 %inh stood at 2.873%. Also, in the assay with CMS, the CMS %inh is reported as -1.053%. In the assay on U937, the U937 %inh is recorded as -3.556%. In the assay with CHRF288-11, the CHRF288-11 %inh is given as -6.517%. The CMK %inh in the assay on CMK is 4.931%. Moreover, the M07e %inh in the assay with M07e is given as -5.089%. Besides, the MV4-11 %inh with MV4-11 is listed as 1.052%.
As for `Oc1ncnc2[nH]ncc12` [SJ000285807-6, ALLOPURINOL], in the assay on ML-2, the ML-2 %inh is recorded as -1.752%. Further, the MOLM-13 %inh in the assay with MOLM-13 was -2.79%. In the assay with CMS, the CMS %inh is on record as -3.837%. Further, in the assay on U937, the U937 %inh amounted to 0.524%. Moreover, the CHRF288-11 %inh in the assay on CHRF288-11 is 0.3228%. Further, the CMK %inh in the assay on CMK is given as -2.837%. In addition, the M07e %inh in the assay with M07e is reported as -3.01%. In addition, the MV4-11 %inh with MV4-11 is -0.8311%.
As to `Cc1ccc2c(-c3ccnc(Nc4ccc5c(c4)OCCO5)n3)c(-c3ccc(C(F)(F)F)cc3)nn2n1` [SJ000573347-1, U19201/9/2], the ML-2 %inh in the assay on ML-2 is listed as -1.284%. Besides, in the assay on MOLM-13, the MOLM-13 %inh came out at 1.079%. For the same compound, in the assay with CMS, the CMS %inh is -0.8147%. Further, the U937 %inh in the assay on U937 worked out at 1.52%. Further, the CHRF288-11 %inh with CHRF288-11 turned out to be 4.555%. Further, the CMK %inh with CMK is reported as -1.247%. Moreover, in the assay on M07e, the M07e %inh is reported as -1.129%. Moreover, in the assay on MV4-11, the MV4-11 %inh was -1.366%.
As to `COc1ccc(-c2oc3ncnc(N)c3c2-c2ccc(NC(=O)Nc3cc(C(F)(F)F)ccc3F)cc2)cc1` [SJ000573296-1, T299/60/1], the ML-2 %inh in the assay on ML-2 came to 0.8185%. Further, the MOLM-13 %inh with MOLM-13 was 23.97%. The CMS %inh with CMS stood at 0.08626%. Also, the U937 %inh in the assay with U937 was -2.62%. For the same compound, the CHRF288-11 %inh in the assay on CHRF288-11 is -2.7%. In the assay with CMK, the CMK %inh was found to be 1.218%. Further, in the assay on M07e, the M07e %inh was -1.472%. The MV4-11 %inh with MV4-11 is reported as 5.923%.
Regarding `C=CC[N+]1([C@H]2C[C@H]3[C@@H]4CC[C@H]5C[C@H](O)[C@@H](N6CCOCC6)C[C@]5(C)[C@H]4CC[C@]3(C)[C@H]2OC(C)=O)CCCC1` [SJ000556732-1, ROCURONIUM BROMIDE], the ML-2 %inh in the assay with ML-2 is recorded as -0.2233%. Besides, the MOLM-13 %inh in the assay with MOLM-13 is reported as -4.64%. In addition, in the assay on CMS, the CMS %inh is reported as -2.237%. For the same compound, the U937 %inh with U937 is -2.855%. In addition, the CHRF288-11 %inh in the assay on CHRF288-11 was -4.633%. In addition, the CMK %inh in the assay with CMK was -9.307%. For the same compound, the M07e %inh in the assay with M07e is recorded as -1.372%. Moreover, the MV4-11 %inh in the assay with MV4-11 came out at 0.4653%.
With `Cc1ccc(NC(=O)c2ccnc(N3CCCC3)c2)cc1-c1ccc(C(=O)NCC2CC2)cc1` [SJ000573336-1, U23923/65/8], the ML-2 %inh with ML-2 is on record as -2.392%. In the assay with MOLM-13, the MOLM-13 %inh is on record as 2.702%. In the assay with CMS, the CMS %inh is on record as -0.7437%. For the same compound, in the assay with U937, the U937 %inh turned out to be 0.7829%. Also, the CHRF288-11 %inh in the assay with CHRF288-11 is listed as -0.1983%. Further, the CMK %inh in the assay with CMK stood at 0.1294%. In addition, in the assay on M07e, the M07e %inh is on record as -0.5333%. Also, the MV4-11 %inh with MV4-11 was determined as 1.019%.
On to `CC(C)(O)[C@H]1O[C@H]2CC[C@@]3(C)[C@@](O)(CC[C@H]4Cc5c([nH]c6ccccc56)[C@@]43C)C2=CC1=O` [SJ000561050-1, PAXILLINE], for which the ML-2 %inh in the assay with ML-2 turned out to be 3.934%. In the assay on MOLM-13, the MOLM-13 %inh was 2.78%. The CMS %inh in the assay on CMS amounted to 1.09%. Also, the U937 %inh in the assay with U937 was 7.084%. In addition, the CHRF288-11 %inh with CHRF288-11 stood at 3.611%. Besides, in the assay on CMK, the CMK %inh is on record as 7.96%. Besides, the M07e %inh in the assay with M07e is -0.09318%. The MV4-11 %inh with MV4-11 stood at 1.599%.
In the case of `CCc1cccc(CC)c1/C=C/c1cncc(C(=O)NC)c1` [SJ000573062-1, U12068/83/1], the ML-2 %inh in the assay with ML-2 was 7.466%. The MOLM-13 %inh in the assay on MOLM-13 came to 18.25%. Moreover, in the assay with CMS, the CMS %inh was 0.8952%. Besides, the U937 %inh in the assay with U937 was determined as 29.57%. Besides, the CHRF288-11 %inh with CHRF288-11 came out at 36.66%. In addition, in the assay on CMK, the CMK %inh came out at 82.75%. Besides, the M07e %inh in the assay with M07e was 15.2%. Besides, the MV4-11 %inh in the assay on MV4-11 was -0.1109%.
As to `Cn1cc(C2=C(c3cccc([N+](=O)[O-])c3)C(=O)NC2=O)c2ccccc21` [SJ000581137-1], the ML-2 %inh in the assay with ML-2 is on record as 13.53%. Further, in the assay on MOLM-13, the MOLM-13 %inh turned out to be 11.77%. Besides, the CMS %inh in the assay with CMS amounted to 50.99%. For the same compound, in the assay on U937, the U937 %inh is -0.4034%. The CHRF288-11 %inh in the assay on CHRF288-11 was 36.65%. For the same compound, the CMK %inh in the assay on CMK was determined as 90.94%. Further, the M07e %inh with M07e is 11.35%. Moreover, the MV4-11 %inh in the assay on MV4-11 turned out to be 20.06%.
For `Cc1cccc(-c2n[nH]cc2-c2ccc3ncccc3n2)n1` [SJ000573293-1, FFJG/252/112/1 | REPSOX], the ML-2 %inh in the assay with ML-2 is recorded as 2.229%. In the assay on MOLM-13, the MOLM-13 %inh is -2.402%. In addition, the CMS %inh with CMS is 2.179%. In addition, in the assay with U937, the U937 %inh is reported as 6.099%. The CHRF288-11 %inh with CHRF288-11 is given as 4.75%. Also, the CMK %inh in the assay with CMK worked out at 1.842%. Also, the M07e %inh in the assay on M07e is given as -1.053%. Moreover, in the assay on MV4-11, the MV4-11 %inh came to 1.439%.
For the compound `Cc1nc(-c2ccccc2)n2nc(NCCCN3CCOCC3)ncc12` [SJ000573136-1, U19891/100/1], the ML-2 %inh with ML-2 worked out at 5.663%. Also, in the assay with MOLM-13, the MOLM-13 %inh was 7.46%. Further, the CMS %inh in the assay with CMS is listed as 0.3241%. Moreover, the U937 %inh in the assay with U937 is 1.344%. The CHRF288-11 %inh in the assay on CHRF288-11 was 6.275%. Moreover, the CMK %inh in the assay on CMK is 23.01%. For the same compound, the M07e %inh in the assay with M07e is listed as -0.8598%. Further, the MV4-11 %inh with MV4-11 is on record as 3.076%.
Turning to `NC(=O)c1sc(-n2cnc3ccc(C(F)(F)F)cc32)cc1OCc1ccccc1Br` [SJ000573167-1, U19121/196/1], the ML-2 %inh in the assay with ML-2 was found to be 22.34%. The MOLM-13 %inh in the assay with MOLM-13 was 2.5%. The CMS %inh with CMS stood at 15.36%. Also, in the assay on U937, the U937 %inh worked out at 43.5%. Also, the CHRF288-11 %inh with CHRF288-11 was found to be 1.336%. The CMK %inh with CMK was -1.461%. Moreover, in the assay with M07e, the M07e %inh is on record as 5.031%. Besides, the MV4-11 %inh with MV4-11 amounted to 1.988%.
Turning to `Clc1ccc(C(Cn2ccnc2)OCc2ccsc2Cl)c(Cl)c1` (single isomer, unassigned) [SJ000556739-2, TIOCONAZOLE], the ML-2 %inh in the assay on ML-2 (ML-2 %inh, 10 µM) is on record as 3.315%. Moreover, the MOLM-13 %inh with MOLM-13 (MOLM-13 %inh, 10 µM) amounted to 22.63%. For the same compound, the CMS %inh with CMS (CMS %inh, 10 µM) is 5.318%. Further, the U937 %inh in the assay with U937 (U937 %inh, 10 µM) was found to be 5.367%. Also, in the assay with CHRF288-11 (CHRF288-11 %inh, 10 µM), the CHRF288-11 %inh stood at 62.31%. Moreover, the CMK %inh in the assay on CMK (CMK %inh, 10 µM) is given as 43.08%. Moreover, in the assay on M07e (M07e %inh, 10 µM), the M07e %inh is recorded as 7.997%. Further, the MV4-11 %inh with MV4-11 (MV4-11 %inh, 10 µM) came to 16.77%.
